Test [1] deals with T1, Androgen Receptor dual T878A/L702H mutant protein (Homo sapiens, UniProt P10275, L702H/T878A).
T1 construct: Androgen Receptor dual T878A/L702H mutant protein in human MDA PCa 2b (ATCC, #CRL-2422) cells; host or cells: MDA PCa 2b
T1 sequence (P10275 1-920 L702H/T878A): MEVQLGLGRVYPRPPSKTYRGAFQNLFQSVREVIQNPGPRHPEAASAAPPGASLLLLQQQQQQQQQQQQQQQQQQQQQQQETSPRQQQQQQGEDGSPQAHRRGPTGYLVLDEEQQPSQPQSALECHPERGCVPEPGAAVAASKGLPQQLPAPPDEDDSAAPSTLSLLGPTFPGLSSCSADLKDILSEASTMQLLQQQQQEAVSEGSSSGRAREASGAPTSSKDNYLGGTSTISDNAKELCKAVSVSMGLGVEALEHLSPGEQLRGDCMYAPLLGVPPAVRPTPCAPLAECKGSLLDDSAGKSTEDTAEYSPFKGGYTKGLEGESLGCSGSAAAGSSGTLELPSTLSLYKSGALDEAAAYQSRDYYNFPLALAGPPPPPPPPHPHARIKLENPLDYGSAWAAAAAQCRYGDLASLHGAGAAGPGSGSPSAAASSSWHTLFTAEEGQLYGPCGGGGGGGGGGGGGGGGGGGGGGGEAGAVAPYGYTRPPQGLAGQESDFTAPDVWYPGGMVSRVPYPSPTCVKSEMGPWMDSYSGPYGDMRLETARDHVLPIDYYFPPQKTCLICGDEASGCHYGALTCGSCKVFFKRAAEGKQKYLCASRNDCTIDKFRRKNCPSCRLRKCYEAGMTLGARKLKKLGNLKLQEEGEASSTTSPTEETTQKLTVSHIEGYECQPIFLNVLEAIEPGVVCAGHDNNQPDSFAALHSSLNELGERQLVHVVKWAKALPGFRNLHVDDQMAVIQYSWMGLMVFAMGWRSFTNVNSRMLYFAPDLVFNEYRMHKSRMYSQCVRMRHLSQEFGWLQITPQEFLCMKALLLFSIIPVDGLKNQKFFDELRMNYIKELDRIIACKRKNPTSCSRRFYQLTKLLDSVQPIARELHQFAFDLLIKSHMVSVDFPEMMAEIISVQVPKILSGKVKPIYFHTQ
The test is described as follows: Dual Mutant (T878A/L702H) Androgen Receptor Degradation Assay (HTRF). The note with it: MDA-PCa-2b, 18 h, human MDA PCa 2b cells, read-out: mean asymptote max. Type of test: cell-based. On the procedure:
Degradation of Androgen Receptor dual T878A/L702H mutant protein in human MDA PCa 2b (ATCC, #CRL-2422) cells treated with PROTACs was quantified using the HTRF Human Androgen Receptor Detection Kit (PerkinElmer, #64ANDRPEH) in 384 well assay plate format. 10 mM DMSO(Sigma-Aldrich, #472301) stock solutions of PROTACs were prepared and diluted across an 11 concentration, 3-fold increment range, and 25 nL dispensed into a white opaque bottomed 384 well assay plate (Thermofisher, #164610) using an acoustic ECHO dispenser (Labcyte). Cells were cultured in growth medium (BRFF-HPC-1 (Athena ES, #0403) supplemented with 20% FBS (Gibco, #10099-141), penicillin 50 U/mL and streptomycin 50 ug/mL (Gibco, #15140-122)) in collagen I or poly-D-lysine coated T175 flasks (Corning, #356487 or #356539, respectively). For the assay, cells were harvested from the flask, centrifuged at 200 g for 5 min and then resuspended in the growth medium. 25 μl of cell suspension containing 10,000 cells was dispensed into each well of the assay plate containing the test compounds, which was then incubated for 18 h at 37° C./5% CO2. Control wells were included on each assay plate, with assay medium without cells being the no AR remaining 100% effect control, and cells treated with DMSO vehicle only, without PROTAC, the 0% effect control. After 18 h incubation 8 μl of supplemented lysis buffer from HTRF kit was added to each well and the plate shaken at 500 rpm for 1 h at room temperature. 8 μl of antibody mix in Detection buffer from HTRF kit was added to each well and the plate was incubated for 2 h in dark at room temperature. The fluorescence was measured at both 620 nm and 665 nm using an excitation wavelength of 337 nm with a PHERAstar microplate reader (BMG Labtech) and the % AR protein remaining in each well was calculated by normalising the HTRF ratio (665 nm signal/620 nm signal) value to the control wells mentioned above. Parameters corresponding to the potency and efficacy estimates of the PROTACs were obtained from these normalised values using curve fitting software (IDBS ActivityBase). These included the DC50 and the Dmax estimates. Two versions of the DC50, called relative DC50 and absolute DC50, were typically generated. These are the inflection point of a fitted 4 parameter sigmoidal response curve and the interpolated concentration of PROTAC corresponding to 50% of the protein being degraded, respectively. The Dmax parameter was the maximum experimentally observed degradation and the asymptote max parameter the fitted response curve asymptote maximum.
In general terms: In TR-FRET formats the signal depends on donor and acceptor labels being close together.

The target of another test is T2, Androgen Receptor (Homo sapiens, UniProt P10275, T878A).
T2 construct: the AR gene was modified, using CRISPR/Cas9 editing, so the expressed AR protein included an 11 amino acid HiBiT tag; endogenous in cells; host or cells: clonal LnCaP-derived line, AR gene edited by CRISPR/Cas9
T2 sequence (P10275 whole entry T878A): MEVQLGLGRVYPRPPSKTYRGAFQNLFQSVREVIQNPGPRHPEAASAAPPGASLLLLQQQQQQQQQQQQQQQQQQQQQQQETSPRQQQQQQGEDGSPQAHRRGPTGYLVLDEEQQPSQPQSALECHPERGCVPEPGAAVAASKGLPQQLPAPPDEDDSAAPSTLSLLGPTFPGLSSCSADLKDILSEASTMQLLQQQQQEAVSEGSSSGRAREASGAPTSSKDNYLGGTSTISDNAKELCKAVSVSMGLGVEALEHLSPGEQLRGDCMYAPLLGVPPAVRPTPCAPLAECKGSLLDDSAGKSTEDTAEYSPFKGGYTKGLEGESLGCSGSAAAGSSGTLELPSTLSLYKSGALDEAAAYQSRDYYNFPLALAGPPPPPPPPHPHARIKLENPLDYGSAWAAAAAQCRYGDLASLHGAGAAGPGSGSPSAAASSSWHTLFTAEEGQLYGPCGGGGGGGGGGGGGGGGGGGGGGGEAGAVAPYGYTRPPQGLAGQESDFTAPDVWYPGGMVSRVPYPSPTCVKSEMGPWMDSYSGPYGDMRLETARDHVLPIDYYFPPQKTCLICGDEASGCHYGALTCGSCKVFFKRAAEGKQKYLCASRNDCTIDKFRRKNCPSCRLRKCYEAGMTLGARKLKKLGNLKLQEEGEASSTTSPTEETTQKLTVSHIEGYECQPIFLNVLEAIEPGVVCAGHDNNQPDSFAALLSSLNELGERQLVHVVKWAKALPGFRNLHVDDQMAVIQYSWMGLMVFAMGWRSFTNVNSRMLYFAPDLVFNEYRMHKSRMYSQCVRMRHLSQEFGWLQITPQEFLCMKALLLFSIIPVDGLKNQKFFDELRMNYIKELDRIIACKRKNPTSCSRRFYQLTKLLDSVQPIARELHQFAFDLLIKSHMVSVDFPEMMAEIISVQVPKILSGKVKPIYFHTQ
T2 sequence (Q96SW2 whole entry partner): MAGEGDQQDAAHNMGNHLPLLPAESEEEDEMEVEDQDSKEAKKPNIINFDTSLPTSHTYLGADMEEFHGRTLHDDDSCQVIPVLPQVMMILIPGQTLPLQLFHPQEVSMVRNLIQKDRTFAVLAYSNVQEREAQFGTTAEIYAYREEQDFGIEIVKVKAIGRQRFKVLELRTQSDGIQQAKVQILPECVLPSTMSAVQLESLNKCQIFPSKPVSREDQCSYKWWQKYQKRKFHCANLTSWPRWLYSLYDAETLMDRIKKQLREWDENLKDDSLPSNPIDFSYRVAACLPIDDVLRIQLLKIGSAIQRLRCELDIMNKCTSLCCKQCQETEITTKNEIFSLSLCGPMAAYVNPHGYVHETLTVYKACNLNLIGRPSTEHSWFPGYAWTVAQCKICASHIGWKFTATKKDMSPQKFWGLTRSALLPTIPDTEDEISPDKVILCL
T2 sequence (Q16531 whole entry partner): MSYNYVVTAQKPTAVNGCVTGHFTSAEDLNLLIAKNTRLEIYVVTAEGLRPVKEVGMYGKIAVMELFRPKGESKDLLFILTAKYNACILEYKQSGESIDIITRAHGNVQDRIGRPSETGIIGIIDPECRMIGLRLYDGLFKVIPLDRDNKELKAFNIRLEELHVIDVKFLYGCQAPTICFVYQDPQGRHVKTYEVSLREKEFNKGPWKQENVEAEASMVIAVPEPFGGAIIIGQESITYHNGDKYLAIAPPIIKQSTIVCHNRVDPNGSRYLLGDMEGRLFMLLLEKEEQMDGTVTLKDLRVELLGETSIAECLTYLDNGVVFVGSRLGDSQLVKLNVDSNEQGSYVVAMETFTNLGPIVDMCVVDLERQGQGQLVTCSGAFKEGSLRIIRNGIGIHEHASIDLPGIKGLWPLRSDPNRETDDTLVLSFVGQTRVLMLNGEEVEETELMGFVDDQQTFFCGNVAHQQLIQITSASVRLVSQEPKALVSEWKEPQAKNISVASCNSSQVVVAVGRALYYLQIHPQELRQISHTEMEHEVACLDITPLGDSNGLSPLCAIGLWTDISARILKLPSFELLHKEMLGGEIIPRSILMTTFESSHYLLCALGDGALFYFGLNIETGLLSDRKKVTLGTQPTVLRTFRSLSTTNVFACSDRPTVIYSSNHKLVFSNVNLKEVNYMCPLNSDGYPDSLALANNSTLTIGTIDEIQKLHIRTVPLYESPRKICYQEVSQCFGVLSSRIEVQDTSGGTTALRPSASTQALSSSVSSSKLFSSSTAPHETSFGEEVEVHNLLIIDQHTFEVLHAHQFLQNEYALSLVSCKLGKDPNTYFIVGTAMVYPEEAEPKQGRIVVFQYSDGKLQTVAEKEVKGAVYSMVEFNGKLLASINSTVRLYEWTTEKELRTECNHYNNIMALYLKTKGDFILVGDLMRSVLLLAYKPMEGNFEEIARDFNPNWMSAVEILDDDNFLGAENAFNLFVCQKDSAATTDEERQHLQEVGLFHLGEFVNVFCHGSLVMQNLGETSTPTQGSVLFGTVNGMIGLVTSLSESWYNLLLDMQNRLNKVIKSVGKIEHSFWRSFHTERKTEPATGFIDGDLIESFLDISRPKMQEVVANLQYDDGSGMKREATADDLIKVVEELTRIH
In words: Androgen Receptor Degradation Assay (Nano-Glo HiBiT). The test is classed as cell-based. Conditions: LNCaP, 18 h, HiBiT-tagged AR in human LnCaP cells, read-out: mean asymptote max. Summed up:
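LnCaP cells with CRISPR-knocked-in N-terminal HiBiT-tagged AR (10,000/well) treated 18 h at 37 °C with PROTACs over 11 threefold concentrations; lytic HiBiT luminescence normalised to DMSO (0%) and cell-free (100%) controls. Relative DC50 = 4-parameter fit inflection; absolute DC50 = 50% degradation interpolation; Dmax = maximum observed degradation.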
In general terms: HiBiT is a short tag that completes a luciferase, so light tracks the accessible tagged protein.

In test [2] the target is T3, Full length Cereblon protein (6His tev Cereblon/6His tev DDB1ΔBPB) (Homo sapiens, UniProt Q96SW2).
T3 construct: Full length Cereblon protein (6His tev Cereblon/6His tev DDB1ΔBPB) was expressed and purified from E. coli; made in house; host or cells: E. coli
T3 sequence (Q96SW2 whole entry, stated change not applied): as the sequence (Q96SW2 whole entry partner) above
In words: Cereblon Binding Assay (TR-FRET). Conditions: 5 nM protein, 50 nM Alexa647-lenalidomide ligand, read-out: Mean pIC50 (converted). On the procedure: Full length Cereblon protein (6His tev Cereblon/6His tev DDB1ΔBPB) was expressed and purified from E. coli to monitor compound binding. […] A Thermo Scientific Multidrop Combi was used to dispense 5 μL of 10 nM protein in assay buffer of 50 mM
HEPES, 150 mM NaCl, 5% glycerol, 1 mM DTT and 1 mM CHAPS, pH 7.4, in the presence of 100 nM fluorescent ligand (Final assay concentrations of 5 nM protein and 50 nM ligand). After equilibrating for 15 min in the dark at room temperature a 5 μL addition was made of 2 nM europium chelate labelled anti-6His antibody (Perkin Elmer, W1024, AD0111) in assay buffer (1 nM FAC). […] TR-FRET ratio data was normalised to high (DMSO) and low (reaction in the absence of protein) controls and pIC50 values determined for each of the compounds tested by fitting the fluorescence ratio data to a four parameter model:
[formula] • where ‘a’ is the minimum, ‘b’ is the maximum, ‘c’ is the pIC50 and ‘d’ is the Hill slope.

Consider 9 molecules from patent US20250205344A1, “2,4-DIOXOTETRAHYDROPYRIMIDINYL DERATIVES AS DEGRONS IN PROTACS” (GLAXOSMITHKLINE INTELLECTUAL PROPERTY DEVELOPMENT LIMITED, priority 2022, published 2025).

Counter-ions that a name gives are not always drawn.

As to `CC1(C)[C@H](NC(=O)c2ccc(CCCCCCN3CCC(n4ccc5c(N6CCC(=O)NC6=O)cccc54)CC3)cc2)C(C)(C)[C@H]1Oc1ccc(C#N)c(C(F)(F)F)c1` [EAR75, N-((1r,3r)-3-(4-Cyano-3-(trifluoromethyl)phenoxy)-2,2,4,4-tetramethylcyclobutyl)-4-(6-(4-(4-(2,4-dioxotetrahydropyrimidin-1(2H)-yl)-1H-indol-1-yl)piperidin-1-yl)hexyl)benzamide], the results for the Dmax (in test [1]; at Androgen Receptor) were no less than 55% and no less than 50%, respectively.

As for `CC1(C)[C@H](NC(=O)c2ccc(N3CCC(CN4CCC(n5ccc6c(N7CCC(=O)NC7=O)cccc65)CC4)CC3)nc2)C(C)(C)[C@H]1Oc1ccc(C#N)c(Cl)c1` [EAR29, N-((1r,3r)-3-(3-chloro-4-cyanophenoxy)-2,2,4,4-tetramethylcyclobutyl)-6-(4-((4-(4-(2,4-dioxotetrahydropyrimidin-1(2H)-yl)-1H-indol-1-yl)piperidin-1-yl)methyl)piperidin-1-yl)nicotinamide formate], the Dmax was no less than 55% in test [1] and no less than 50% on Androgen Receptor.

Regarding `N#Cc1ccc(O[C@H]2CC[C@H](NC(=O)c3ccc(N4CCCC(CN5CCC(n6ccc7c(N8CCC(=O)NC8=O)cccc76)CC5)C4)nn3)CC2)cc1Cl` (mixture of isomers) [EAR73, rac-N-((1r,4r)-4-(3-Chloro-4-cyanophenoxy)cyclohexyl)-6-(3-((4-(4-(2,4-dioxotetrahydropyrimidin-1(2H)-yl)-1H-indol-1-yl)piperidin-1-yl)methyl)piperidin-1-yl)pyridazine-3-carboxamide], the IC50 in test [2] was no more than 1 µM. For the same molecule, the Dmax on Androgen Receptor is no less than 50%.

With `CC1(C)[C@H](NC(=O)c2cnc(N3CCC(CN4CCC(n5ncc6c(N7CCC(=O)NC7=O)cccc65)CC4)CC3)cn2)C(C)(C)[C@H]1Oc1ccc(C#N)c(Cl)c1` [EAR37, N-((1r,3r)-3-(3-Chloro-4-cyanophenoxy)-2,2,4,4-tetramethylcyclobutyl)-5-(4-((4-(4-(2,4-dioxotetrahydropyrimidin-1(2H)-yl)-1H-indazol-1-yl)piperidin-1-yl)methyl)piperidin-1-yl)pyrazine-2-carboxamide hydrochloride], the Dmax in test [1] was no less than 55%; on Androgen Receptor, no less than 50%.

For the molecule `CC1(C)[C@H](NC(=O)c2ccc(N3CCC(CN4CCC(n5ncc6c(N7CCC(=O)NC7=O)cccc65)CC4)CC3)nc2)C(C)(C)[C@H]1Oc1ccc(C#N)c(Cl)c1` [AR41, N-((1r,3r)-3-(3-Chloro-4-cyanophenoxy)-2,2,4,4-tetramethylcyclobutyl)-6-(4-((4-(4-(2,4-dioxotetrahydropyrimidin-1(2H)-yl)-1H-indazol-1-yl)piperidin-1-yl)methyl)piperidin-1-yl)nicotinamide hydrochloride], the Dmax in test [1] was no less than 55%; on Androgen Receptor it was no less than 50%.

In the case of `CC1(C)[C@H](NC(=O)c2ccc(N3CCC(CN4CCC(n5ncc6c(N7CCC(=O)NC7=O)cccc65)CC4)CC3)nn2)C(C)(C)[C@H]1Oc1ccc(C#N)c2ncccc12` [AR246, N-((1r,3r)-3-((8-Cyanoquinolin-5-yl)oxy)-2,2,4,4-tetramethylcyclobutyl)-6-(4-((4-(4-(2,4-dioxotetrahydropyrimidin-1(2H)-yl)-1H-indazol-1-yl)piperidin-1-yl)methyl)piperidin-1-yl)pyridazine-3-carboxamide], the results for the Dmax (in test [1]; at Androgen Receptor) were no less than 55% and no less than 50%, respectively.

Take `CC1(C)[C@H](NC(=O)c2cnc(N3CCC(CN4CCC(n5ccc6c(N7CCC(=O)NC7=O)cncc65)CC4)CC3)nc2)C(C)(C)[C@H]1Oc1ccc(C#N)c(Cl)c1` [EAR18, N-((1r,3r)-3-(3-Chloro-4-cyanophenoxy)-2,2,4,4-tetramethylcyclobutyl)-2-(4-((4-(4-(2,4-dioxotetrahydropyrimidin-1(2H)-yl)-1H-pyrrolo[2,3-c]pyridin-1-yl)piperidin-1-yl)methyl)piperidin-1-yl)pyrimidine-5-carboxamide]: the Dmax in test [1] was no less than 55%; at Androgen Receptor, no less than 50%.

Consider `CC1(C)[C@H](NC(=O)c2ccc(N3CCC(CN4CCC(n5ncc6c(N7CCC(=O)NC7=O)cccc65)CC4)CC3)nc2)C(C)(C)[C@H]1Oc1ccc(C#N)c2ncccc12` [AR261, N-((1r,3r)-3-((8-Cyanoquinolin-5-yl)oxy)-2,2,4,4-tetramethylcyclobutyl)-6-(4-((4-(4-(2,4-dioxotetrahydropyrimidin-1(2H)-yl)-1H-indazol-1-yl)piperidin-1-yl)methyl)piperidin-1-yl)nicotinamide hydrochloride], for which the Dmax in test [1] is no less than 55%.

As for `CC1(C)[C@H](NC(=O)c2ccc(N3CCC(CN4CCC(n5ncc6c(N7CCC(=O)NC7=O)cccc65)CC4)CC3)nn2)C(C)(C)[C@H]1Oc1cnc(C#N)c(Cl)c1` [EAR249, N-((1r,3r)-3-((5-Chloro-6-cyanopyridin-3-yl)oxy)-2,2,4,4-tetramethylcyclobutyl)-6-(4-((4-(4-(2,4-dioxotetrahydropyrimidin-1(2H)-yl)-1H-indazol-1-yl)piperidin-1-yl)methyl)piperidin-1-yl)pyridazine-3-carboxamide hydrochloride], the IC50 in test [2] is no more than 1 µM. The Dmax at Androgen Receptor is no less than 50%.
